This note sets out measurements from patent US20240116948A1, “PYRIDO OXAZINE DERIVATIVES AS ALK5 INHIBITORS” (CHIESI FARMACEUTICI S.P.A., priority 2020, published 2024).

human ALK5, sequence (P36897 80-503 limits assumed): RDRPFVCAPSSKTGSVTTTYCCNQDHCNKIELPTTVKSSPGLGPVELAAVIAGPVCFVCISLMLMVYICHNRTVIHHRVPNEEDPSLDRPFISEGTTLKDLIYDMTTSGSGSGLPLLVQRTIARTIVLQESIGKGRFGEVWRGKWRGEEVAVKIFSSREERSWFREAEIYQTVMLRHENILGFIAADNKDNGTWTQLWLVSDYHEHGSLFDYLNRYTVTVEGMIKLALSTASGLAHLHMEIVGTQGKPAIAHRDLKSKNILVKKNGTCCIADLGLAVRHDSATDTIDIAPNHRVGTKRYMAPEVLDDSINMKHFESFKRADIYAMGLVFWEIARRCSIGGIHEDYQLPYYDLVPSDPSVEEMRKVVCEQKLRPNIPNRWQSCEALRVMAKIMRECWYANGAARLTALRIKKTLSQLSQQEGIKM

The target in this assay is human ALK5 (Homo sapiens (Human), UniProt P36897). Nature of the assay: ADP-GLO Kinases assay, inhibition of ALK5 kinase activity. Format: biochemical. The note with it: Table 12; compounds classified in term of potency; ATP at Km, 25° C.; read-out: ALK5 IC50. On the procedure:
The enzymatic activity of compounds of the present invention was monitored measuring the formation of ADP using the ADP-GLO Kinases assay. Following the incubation of the purified enzyme, a substrate and ATP, the produced ADP was converted into ATP, which in turn was converted into light by Ultra-Glo Luciferase. The luminescent signal positively correlated with ADP amount and kinase activity. Briefly, the kinase reaction was performed by incubating 2.6 nM of the purified, commercially available human ALK5 (recombinant TGF 31 N-term GST-tagged, 80-end), a final concentration of TGFβ1 peptide 94.5 μM (Promega, T36-58) and ultra-pure ATP (Promega V915B). The ATP concentration was set at the Km value (concentration of substrate which permits the enzyme to achieve half maximal velocity (Vmax)) of ALK5 (5 μM). All reactions/incubations were performed at 25° C. Compound and ALK5 kinase were mixed and incubated for 15 mins. Reactions were initiated by addition of ATP at a final concentration in the assay of […]. After an incubation of 150 min, the reaction was stopped, and ADP production detected with ADP-Glo kit according to manufacturer's indications. The assay was performed in 384-well format and was validated using a selection of reference compounds that was tested in 11 point concentration-response curve.
Compounds of the examples C1 and C2 were tested in the same in vitro assay described above.
For `O=C(CCN1CCNCC1)Nc1cncc(-c2cc(-c3cc(Cl)ccc3F)nc3c2OCCN3)c1` [Example 16, N-{5-[6-(5-chloro-2-fluorophenyl)-2H,3H,4H-pyrido[3,2-b][1,4]oxazin-8-yl]pyridin-3-yl}-3-(piperazin-1-yl)propanamide], the IC50 lay within 1 to 5 nM.
With `CN(C)CCCC(=O)Nc1cncc(-c2cc(-c3cc(Cl)ccc3F)nc3c2OCCN3)c1` [Example 17, N-{5-[6-(5-chloro-2-fluorophenyl)-2H,3H,4H-pyrido[3,2-b][1,4]oxazin-8-yl]pyridin-3-yl}-4-(dimethylamino)butanamide], the IC50 was ≤ 1 nM.
In the case of `CNCCC(=O)Nc1cncc(-c2cc(-c3cc(Cl)ccc3F)nc3c2OCCN3)c1` [Example 22, N-{5-[6-(5-chloro-2-fluorophenyl)-2H,3H,4H-pyrido[3,2-b][1,4]oxazin-8-yl]pyridin-3-yl}-3-(methylamino)propanamide] it was ≤ 1 nM; in that of `CNCCCNC(=O)c1cncc(-c2cc(-c3cc(Cl)ccc3F)nc3c2OCCN3)c1` [Example 32, 5-[6-(5-chloro-2-fluorophenyl)-2H,3H,4H-pyrido[3,2-b][1,4]oxazin-8-yl]-N-[3-(methylamino)propyl]pyridine-3-carboxamide], 1 to 5 nM.
With `COC(=O)c1cncc(-c2cc(-c3cccc(C)n3)nc3c2OCCN3)c1` [Example 39, Methyl 5-[6-(6-methylpyridin-2-yl)-2H,3H,4H-pyrido[3,2-b][1,4]oxazin-8-yl]pyridine-3-carboxylate], the IC50 lay in the range of 5 to 10 nM.
The result for `CN(C)CCCNc1cncc(-c2cc(-c3cc(Cl)ccc3F)nc3c2OCCN3)c1` [Example 30, 5-[6-(5-chloro-2-fluorophenyl)-2H,3H,4H-pyrido[3,2-b][1,4]oxazin-8-yl]-N-[3-(dimethylamino)propyl]pyridin-3-amine] reads 1 to 5 nM; that for `Fc1ccc(Cl)cc1-c1cc(-c2cncc3ccccc23)c2c(n1)NCCO2` [Example 2, 4-[6-(5-chloro-2-fluorophenyl)-2H,3H,4H-pyrido[3,2-b][1,4]oxazin-8-yl]isoquinoline], 1 to 5 nM.
For `O=C(NCCN1CCCC1)c1cncc(-c2cc(-c3cc(Cl)ccc3F)nc3c2OCCN3)c1` [Example 26, 5-[6-(5-chloro-2-fluorophenyl)-2H,3H,4H-pyrido[3,2-b][1,4]oxazin-8-yl]-N-[2-(pyrrolidin-1-yl)ethyl]pyridine-3-carboxamide], the half-inhibitory concentration (IC50) is 5 to 10 nM.
With `O=C(NCCN1CCOCC1)c1cncc(-c2cc(-c3cc(Cl)ccc3F)nc3c2OCCN3)c1` [Example 11, 5-[6-(5-chloro-2-fluorophenyl)-2H,3H,4H-pyrido[3,2-b][1,4]oxazin-8-yl]-N-[2-(morpholin-4-yl)ethyl]pyridine-3-carboxamide], the half-inhibitory concentration (IC50) was in the range of 5 to 10 nM.
Regarding `Fc1ccc(Cl)cc1-c1cc(-c2cnc3[nH]ccc3c2)c2c(n1)NCCO2` [Example 13, 6-(5-chloro-2-fluorophenyl)-8-{1H-pyrrolo[2,3-b]pyridin-5-yl}-2H,3H,4H-pyrido[3,2-b][1,4]oxazine], the IC50 was 5 to 10 nM.
With `Oc1cncc(-c2cc(-c3cc(Cl)ccc3F)nc3c2OCCN3)c1` [Example 29, 5-[6-(5-chloro-2-fluorophenyl)-2H,3H,4H-pyrido[3,2-b][1,4]oxazin-8-yl]pyridin-3-ol], the IC50 is 1 to 5 nM.
As for `O=C(NCCCN1CCNCC1)c1cncc(-c2cc(-c3cc(Cl)ccc3F)nc3c2OCCN3)c1` [Example 28, 5-[6-(5-chloro-2-fluorophenyl)-2H,3H,4H-pyrido[3,2-b][1,4]oxazin-8-yl]-N-[3-(piperazin-1-yl)propyl]pyridine-3-carboxamide], the IC50 was in the range of 1 to 5 nM.
In the case of `O=C(OC1CC1)c1cncc(-c2cc(-c3cc(Cl)ccc3F)nc3c2OCCN3)c1` [Example 40, Cyclopropyl 5-[6-(5-chloro-2-fluorophenyl)-2H,3H,4H-pyrido[3,2-b][1,4]oxazin-8-yl]pyridine-3-carboxylate] it was 1 to 5 nM.
For `CN1CCN(CCC(=O)Nc2cncc(-c3cc(-c4cc(Cl)ccc4F)nc4c3OCCN4)c2)CC1` [Example 38, N-{5-[6-(5-chloro-2-fluorophenyl)-2H,3H,4H-pyrido[3,2-b][1,4]oxazin-8-yl]pyridin-3-yl}-3-(4-methylpiperazin-1-yl)propanamide], the half-maximal inhibitory concentration (IC50) was 1 to 5 nM.
